Experimental data published in US20150038707A1, “PROCESS FOR MAKING CGRP RECEPTOR ANTAGONISTS” (Merck Sharp & Dohme Corp., priority 2012, published 2015).

Legend:
Ae. aegypti mosquitoes = test: Compound residual life: spatial repellency (Example 9); assay type: in vivo
Description: The four compounds of formula I described in Example 2 were tested for spatial repellency (directed movement away from the chemical source without the insect making physical contact with the treated surface) at low doses on female Aedes aegypti (Thailand strain) mosquitoes. The spatial repellency response was determined by use of the spatial repellency assay disclosed by Grieco et al. in “A New Classification System for the Actions of IRS Chemicals Traditionally Used for Malaria Control” in Plos One, Issue 8 (2007) (available at www.plosone.org) which is incorporated herein by reference for all relevant and consistent purposes. The assay used was a cylindrical assembly that included a treatment chamber at one end and a control chamber at the other end. The treatment chamber included a netting strip (nylon organdy) that was treated with the insecticide of interest at the relevant dose. The treatment chamber and control chamber were connected by a clear cylinder and were separated from the clear cylinder by butterfly valves. Twenty (20) mosquitoes were introduced into the clear central chamber and the butterfly valves were opened after 30 seconds. After 10 minutes, the valves were closed and the number of mosquitoes in each chamber was counted.
The spatial repellency assay of Example 3 was used to determine the residual life of compound 1405 on Ae. aegypti mosquitoes. Compound 1405 (neat, suspended in acetone) was applied by pipette to the netting material and the netting material was maintained at room temperature. The assay was performed at 0, 24 and 48 hours.
Nets were treated and tested at times 0 hour, 24 hour and 48 hour. The nets were held at room temperature between tests. The spatial activity index (“SAI” which varies from −1 to 1 with zero (0) indicating no response) and spatial repellency (SR) were determined. SAI is the measure of the proportion of females in the control chamber over the treated chamber after correcting for the proportion of females in the control chamber.

An. Vestitipennis = test: Repellency field studies in experimental huts, Belize (Example 12); assay type: in vivo; settings: for Reduction (%) vs control hut / Number Collected in Entrance: 2.5 nmole; for Number Collected in Entrance: treated hut
Description: Compound 1405 was tested in field studies in Belize at a concentration of 2.5 nmole/cm^2. The field studies involved use of huts that were equipped with entrance and exit traps. The hut design and collection procedures correspond to those disclosed by Suwonkerd et al. in “The Effect of Host Type on Movement Patters of Aedes aegypti (Diptera: Culicidae) into and out of Experimental Huts in Thailand,” J. Vector. Ecol., vol. 31 (2), p. 311-318 (2006) which is incorporated herein by reference for all relevant and consistent purposes. The huts were equipped with entrance and/or exit traps at entry and exit points (e.g., windows and doors). The huts were randomized and designated as control (no treatment) or treated (with some intervention being evaluated). The relative numbers of mosquitoes entering or leaving the treated vs. control huts was determined. An. Vestitipennis, An. Albimanus, An. Punctimacula, An. Crucians and a large number of other culicines were collected in the traps. An. Vestitipennis comprised the majority of what was collected.

[1] = Dose 2.5, Time 0 hr after net treatment
[2] = Dose 2.5, Time 24 hr after net treatment
[3] = Dose 25, Time 0 hr after net treatment
[4] = Dose 25, Time 24 hr after net treatment
[5] = Dose 25, Time 48 hr after net treatment

Structure (SMILES): CC1(C)C(C=C(Cl)C(F)(F)F)C1C(=O)OCc1ccc(F)c(C(F)(F)F)c1F (stereo not drawn) [Compound 1405]
- SAI (SE) (spatial activity index, -1 to 1) (Ae. aegypti mosquitoes; [1]): 0.5(0.1)
- SR (spatial repellency) (Ae. aegypti mosquitoes; [1]): 21.5
- SAI (SE) (spatial activity index, -1 to 1) (Ae. aegypti mosquitoes; [2]): 0.3(0.1)
- SR (spatial repellency) (Ae. aegypti mosquitoes; [2]): 18
- SAI (SE) (spatial activity index, -1 to 1) (Ae. aegypti mosquitoes; [3]): 0.3(0.1)
- SR (spatial repellency) (Ae. aegypti mosquitoes; [3]): 21.5
- SAI (SE) (spatial activity index, -1 to 1) (Ae. aegypti mosquitoes; [4]): 0.5(0.1)
- SR (spatial repellency) (Ae. aegypti mosquitoes; [4]): 22.5
- SAI (SE) (spatial activity index, -1 to 1) (Ae. aegypti mosquitoes; [5]): 0.4(0.1)
- SR (spatial repellency) (Ae. aegypti mosquitoes; [5]): 22.5
- effectiveness as a repellent in field huts (FIGS. 6-9) (An. Vestitipennis; 2.5 nmole/cm^2, four day study): extremely effective as a repellent
- Reduction (%) vs control hut (An. Vestitipennis; Day 1): 97%
- Number Collected in Entrance (An. Vestitipennis; Day 1): 37
- Reduction (%) vs control hut (An. Vestitipennis; Day 2): 84%
- Number Collected in Entrance (An. Vestitipennis; Day 2): 99
- Reduction (%) vs control hut (An. Vestitipennis; Day 3): 66%
- Number Collected in Entrance (An. Vestitipennis; Day 3): 173
- Reduction (%) vs control hut (An. Vestitipennis; Day 4): 65%
- Number Collected in Entrance (An. Vestitipennis; Day 4): 232
- Reduction (%) vs control hut (An. Vestitipennis; Total of days 1-4): 82%
- Number Collected in Entrance (An. Vestitipennis; Total of days 1-4): 541
